The source of these data is publication PMC9609996, “SAR Study and Molecular Mechanism Investigation of Novel Naphthoquinone-furan-2-cyanoacryloyl Hybrids with Antitumor Activity” (Pharmaceutics, 2022).

In test [1] the test system is various cancer cell lines. Further details: method as in PMID 23651330. The settings on record: read-out: IC50 against various cancer cell lines; cited from earlier work.
In a further test the test system is HeLa. Description: CCK-8 anti-proliferation assay, HeLa. It counts as cell-based, human. As to conditions: Homo sapiens, mean ± SD; for inhibition at 20 µM: read-out: Inhibition Rate (%) at 20 μM HeLa. How it is done:
(§1) Human cervical cancer HeLa, human prostate cancer PC3, human colonic carcinoma HCT116, human lung carcinoma A549, human breast cancer MDA-MB-231, mouse melanoma B16, human ovarian cancer SKOV3, human hepatoma Hep3B, and human liver L02 cells were purchased from the Cell Bank of Shanghai Institute of Biochemistry and Cell Biology, Chinese Academy of Sciences (Shanghai, China). The HeLa, A549, B16, PC3, MDA-MB-231, HCT116, and L02 cells were cultured in Dulbecco’s modified Eagle medium (DMEM, Gibco Inc.; Gaithersburg, MD, USA). All cultures were supplied with 10% fetal bovine serum (FBS; YHSM, Beijing, China), 100 IU/mL of penicillin, and 100 μg/mL of streptomycin, and cells were incubated at 37 °C in an atmosphere of 5% CO2.
(§2) A CCK-8 kit (MCE, USA) was used to perform a CCK-8 assay. Cells were plated and grown in the 96-well plates for the indicated period (48 h) in the incubator, followed by an incubation with the CCK-8 solutions for 1–4 h. Subsequently, the absorbance (450 nm) was measured by a microplate reader. The median inhibitory concentration (IC50) was determined from the dose–response curve. Experiments were performed in a triplicate.
For orientation: Formazan colour is commonly taken as a measure of viable cells.

For a further test, the system named is PC3. Description: CCK-8 anti-proliferation assay, PC3. It counts as cell-based, human. As to conditions: Homo sapiens, mean ± SD; for inhibition at 20 µM: PC-3, 20 μM, read-out: Inhibition Rate (%) at 20 μM PC3. The procedure: as §1, §2
Another test deals with A549. Description: CCK-8 anti-proliferation assay, A549. It counts as cell-based, human. The settings on record: Homo sapiens, mean ± SD; for inhibition at 20 µM: A549, 20 μM, read-out: Inhibition Rate (%) at 20 μM A549. How it is done:
as §1, §2

A further test deals with HCT116. Description: CCK-8 anti-proliferation assay, HCT116. In kind it is cell-based, human. As to conditions: Homo sapiens, mean ± SD; for inhibition at 20 µM: HCT-116, 20 μM, read-out: Inhibition Rate (%) at 20 μM HCT116. The procedure:
as §1, §2

Test [2] has as its system four cancer cell lines (HeLa, PC3, A549, and HCT116). Description: CCK-8 inhibition rates over four cancer cell lines. It counts as cell-based. As to conditions: Homo sapiens. The procedure:
First, the inhibition rates at 20 μM for all newly synthesized compounds were evaluated on four cancer cell lines (HeLa, PC3, A549, and HCT116) by a CCK-8 assay. […] A variety of aliphatic amine substituents were well tolerated (4e, 4f, 5c, and 8f).
as §1, §2

The next test relates to MDA-MB-231. Nature of the test: CCK-8 anti-proliferation assay, MDA-MB-231. The settings on record: Homo sapiens, MDA-MB-231, 48 h, mean ± SD. In kind it is cell-based, human. The procedure: as §1, §2
Another test concerns B16. Nature of the test: CCK-8 anti-proliferation assay, B16. It counts as cell-based. The settings on record: Mus musculus, B16, 48 h, B16 mouse melanoma, mean ± SD. How it is done: as §1, §2
The test system of another test is SKOV3. Description: CCK-8 anti-proliferation assay, SKOV3. As to conditions: Homo sapiens, SK-OV-3, 48 h, mean ± SD. In kind it is cell-based. The procedure:
as §1, §2

The next test deals with Hep3B. Description: CCK-8 anti-proliferation assay, Hep3B. The settings on record: Homo sapiens, 48 h, mean ± SD. In kind it is cell-based, human. How it is done: as §1, §2
The subject of a further test is L02 cells. Description: CCK-8 assay on normal cells, L02. As to conditions: L02 human normal hepatocytes, 48 h, mean ± SD. It counts as cell-based. The procedure:
as §1, §2

Setting [3] is: HeLa, PC3, A549, HCT116, CCK-8, read-out: inhibition rate, span over the four cancer cell lines.
Setting [4] is: one or two of the four cell lines, read-out: inhibition rates against one or two types of tumor cell lines.

Molecules are shown by their SMILES. Where two headings read alike, the source gives them in different places.

Broadly, the IC50 is the concentration at which inhibition is half-maximal. Take `NS(=O)(=O)c1cccc2c1C(=O)C=C(Nc1cccnc1)C2=O` [Ly-5]: the IC50 in test [1] was 0.5 to 1.4 µM.
For orientation: inhibition means the relative decrease from the control value, in per cent. With `COc1cc(-c2ccc(/C=C(\C#N)C(=O)NCCN3CCOCC3)o2)c(OC)c2ccccc12` [Compound 4c, (E)-2-cyano-3-(5-(1,4-dimethoxynaphthalen-2-yl)furan-2-yl)-N-(2-morpholinoethyl)acrylamide], the inhibition at 20 µM is 24.23 ± 0.01% in the test with HeLa; 8.99 ± 0.09% in the test on PC3; 11.25 ± 0.05% with A549; 18.78 ± 0.04% in the test with HCT116; 8.99 to 24.2% in test [2] (setting [3]).
Consider `COc1cc(-c2ccc(/C=C(\C#N)C(=O)NC3CC(C)(C)NC(C)(C)C3)o2)c(OC)c2ccccc12` [Compound 4e, (E)-2-cyano-3-(5-(1,4-dimethoxynaphthalen-2-yl)furan-2-yl)-N-(2,2,6,6-tetramethylpiperidin-4-yl)acrylamide], for which the inhibition at 20 µM in the test with HeLa is 59.1 ± 0.21%; with PC3 it was 15.8 ± 0.33%; with A549 it was 59.49 ± 0.34%; with HCT116 it was 40.53 ± 0.03%; in test [2] (setting [4]), over 50%.
As for `C[C@H](NC(=O)/C(C#N)=C/c1cccc(Br)n1)c1ccccc1` [WP1066, reference compound], the IC50 came to 7.06 ± 1.17 µM in the test on HeLa (48 h); 1.2 ± 0.03 µM in the test with PC3 (PC-3, 48 h, 48 h); 7.55 ± 0.06 µM in the test on A549 (A549, 48 h, 48 h); 7.22 ± 3.14 µM in the test with HCT116 (HCT-116, 48 h); 8.17 ± 0.16 µM in the test on MDA-MB-231; 24.1 ± 0.7 µM in the test with B16. In addition, the values for the concentration for half-maximal inhibition (IC50) with SKOV3, in the test on Hep3B and with L02 cells were 4.66 ± 0.13 µM, 4.36 ± 0.05 µM and 3.45 ± 0.41 µM, respectively.
`COc1cc(-c2ccc(/C=C(\C#N)C(=O)Nc3ccccc3)o2)c(OC)c2ccccc12` [Compound 4h, (E)-2-cyano-3-(5-(1,4-dimethoxynaphthalen-2-yl)furan-2-yl)-N-phenylacrylamide]: the inhibition at 20 µM is 9.49 ± 0.16% with HeLa; 19.53 ± 0.17% with PC3; 0.25 ± 0.13% in the test on A549; 11.5 ± 0.14% in the test with HCT116; 0.25 to 32.4% in test [2] (setting [3]).
Turning to `COc1cc(-c2ccc(/C=C(\C#N)C(=O)NCCc3cccs3)o2)c(OC)c2ccccc12` [Compound 4d, (E)-2-cyano-3-(5-(1,4-dimethoxynaphthalen-2-yl)furan-2-yl)-N-(2-(thiophen-2-yl)ethyl)acrylamide], the inhibition at 20 µM with HeLa came to 11.6 ± 0.79%; with PC3 it was 7.17 ± 0.31%; in the test with A549, 21.58 ± 0.02%; with HCT116, 10.8 ± 0.49%.
In the case of `N#C/C(=C\c1ccc(C2=CC(=O)c3ccccc3C2=O)o1)C(=O)NC1CCN(Cc2ccccc2)CC1` [Compound 5a, (E)-N-(1-benzylpiperidin-4-yl)-2-cyano-3-(5-(1,4-dioxo-1,4-dihydronaphthalen-2-yl)furan-2-yl)acrylamide], the inhibition at 20 µM in the test on HeLa amounted to 10.4 ± 0.41%; in the test on PC3 it was 3.7 ± 0.19%; with A549 it was 13.3 ± 0.17%; with HCT116, 8.36 ± 0.26%.
As to `COC(=O)c1ccc(-c2cc(OC)c3ccccc3c2OC)o1` [Compound 6, Methyl 5-(1,4-dimethoxynaphthalen-2-yl)furan-2-carboxylate], the inhibition at 20 µM in the test on HeLa was 27 ± 0.32%; with PC3, 21.6 ± 0.83%; in the test on A549 it was 21.3 ± 0.45%; with HCT116, 16.78 ± 0.07%.
The matching figures for `COc1cc(-c2ccc(C(=O)NCCCn3ccnc3)o2)c(OC)c2ccccc12` [Compound 8g, N-(3-(1H-imidazol-1-yl)propyl)-5-(1,4-dimethoxynaphthalen-2-yl)furan-2-carboxamide]: 18.28 ± 0.03%, 7.59 ± 0.72%, 26.89 ± 0.16% and 27.46 ± 0.16%.
With `O=C(NCCC(=O)N1CCOCC1)c1ccc(C2=CC(=O)c3ccccc3C2=O)o1` [Compound 9c, 5-(1,4-Dioxo-1,4-dihydronaphthalen-2-yl)-N-(3-morpholino-3-oxopropyl)furan-2-carboxamide], the inhibition at 20 µM in the test on HeLa worked out at 5.91 ± 0.29%; with PC3, 1.45 ± 0.86%; with A549 it was 15.1 ± 0.31%; with HCT116, 37.21 ± 0.08%.
As to `COc1cc(-c2ccc(C(=O)NCc3cc(C(F)(F)F)ccc3F)o2)c(OC)c2ccccc12` [Compound 8d, 5-(1,4-Dimethoxynaphthalen-2-yl)-N-(2-fluoro-5-(trifluoromethyl)benzyl)furan-2-carboxamide], the inhibition at 20 µM was determined as 22.7 ± 0.27% in the test on HeLa, 22.45 ± 0.05% in the test on PC3, 19.35 ± 0.07% in the test on A549 and 14.5 ± 0.24% in the test with HCT116.
In the case of `COc1cc(N2CCC(N(C)C)CC2)ccc1NC(=O)c1ccc(-c2cc(OC)c3ccccc3c2OC)o1` [Compound 8i, 5-(1,4-Dimethoxynaphthalen-2-yl)-N-(4-(4-(dimethylamino)piperidin-1-yl)-2-methoxyphenyl)furan-2-carboxamide], the inhibition at 20 µM in the test on HeLa is 55.62 ± 0.12%; in the test on PC3 it was 25.11 ± 0.05%; in the test on A549, 31.67 ± 0.07%; in the test on HCT116, 47.78 ± 0.19%; in [2] (setting [4]), over 50%.
As for `COc1cc(-c2ccc(C(=O)Nc3cccc(N4CCN(C)CC4)c3)o2)c(OC)c2ccccc12` [Compound 8e, 5-(1,4-Dimethoxynaphthalen-2-yl)-N-(3-(4-methylpiperazin-1-yl)phenyl)furan-2-carboxamide], the inhibition at 20 µM came to 40.58 ± 0.36% in the test on HeLa, 11.5 ± 0.17% in the test with PC3, 14.5 ± 0.25% in the test on A549 and 7.7 ± 0.27% in the test on HCT116.
Take `COc1cc(-c2ccc(/C=C(\C#N)C(=O)NCCN3CCCC3)o2)c(OC)c2ccccc12` [Compound 4i, (E)-2-cyano-3-(5-(1,4-dimethoxynaphthalen-2-yl)furan-2-yl)-N-(2-(pyrrolidin-1-yl)ethyl)acrylamide]: the inhibition at 20 µM with HeLa worked out at 35 ± 0.41%; in the test with PC3, 12.29 ± 0.12%; with A549, 13.9 ± 0.87%; with HCT116 it was 29.05 ± 0.08%.
